Molecular target: T1, Proteasome Macropain subunit MB1 (Homo sapiens, UniProt P28074)
T1 sequence (P28074 whole entry): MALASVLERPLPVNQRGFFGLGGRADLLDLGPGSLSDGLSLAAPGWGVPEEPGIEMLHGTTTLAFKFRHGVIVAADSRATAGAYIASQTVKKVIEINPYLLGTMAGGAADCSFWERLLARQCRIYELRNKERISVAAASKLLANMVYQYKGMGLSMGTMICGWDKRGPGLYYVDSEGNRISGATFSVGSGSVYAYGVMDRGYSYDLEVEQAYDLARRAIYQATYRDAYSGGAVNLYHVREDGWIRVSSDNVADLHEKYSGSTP
Test: Inhibition of chymotrypsin like activity of human 20S proteasome using Suc-Leu-Leu-Val-Tyr-AMC as substrate preincubated for 10 mins followed by substrate addition measured after 1 hr by spectrofluorimetric analysis
Conditions: read-out: IC50

IC50 [nM]	Structure (SMILES)
2.73	CC(=O)N[C@@H](Cc1ccccc1)C(=O)N[C@@H](Cc1ccc(C)cc1)B1OC2C[C@@H]3C[C@@H](C3(C)C)[C@]2(C)O1 (some centres undefined)
1.92	CCCC[C@H](NC(=O)[C@H](Cc1ccccc1)NC(=O)[C@H]1CCCc2ccccc21)B1OC2C[C@@H]3C[C@@H](C3(C)C)[C@]2(C)O1 (some centres undefined)
16.4	CC(C)C[C@H](NC(=O)[C@H](Cc1ccc(O)cc1)NC(=O)OC(C)(C)C)B1OC2C[C@@H]3C[C@@H](C3(C)C)[C@]2(C)O1 (some centres undefined)
41.2	CC(C)C[C@H](NC(=O)[C@H](Cc1c[nH]c2ccccc12)NC(=O)OCc1ccccc1)B1OC2C[C@@H]3C[C@@H](C3(C)C)[C@]2(C)O1 (some centres undefined)
1.26	CC1(C)[C@@H]2CC3OB([C@H](Cc4ccc(F)cc4)NC(=O)[C@H](Cc4ccccc4)NC(=O)[C@H]4CCCc5ccccc54)O[C@@]3(C)[C@H]1C2 (some centres undefined)
4.26	CC(C)C[C@H](NC(=O)[C@H](Cc1cccc2ccccc12)NC(=O)C1CCCc2ccccc21)B1OC2C[C@@H]3C[C@@H](C3(C)C)[C@]2(C)O1 (some centres undefined)
4.37	O=C(N[C@@H](Cc1ccccc1)C(=O)N[C@@H](Cc1ccc(F)cc1)B(O)O)c1cnccn1
6.96	CC(C)C[C@H](NC(=O)[C@@H](NC(=O)c1cccc2c1CCCC2)C(C)C)B1OC2C[C@@H]3C[C@@H](C3(C)C)[C@]2(C)O1 (some centres undefined)
120	CC(C)C[C@H](NC(=O)OC(C)(C)C)C(=O)N[C@@H](Cc1ccccc1)B1OC2C[C@@H]3C[C@@H](C3(C)C)[C@]2(C)O1 (some centres undefined)
5.24	CC1(C)[C@@H]2CC3OB([C@H](Cc4ccccc4)NC(=O)[C@H](Cc4ccccc4)NC(=O)[C@H]4CCCc5ccccc54)O[C@@]3(C)[C@H]1C2 (some centres undefined)
5.17	CC(C)C[C@H](NC(=O)[C@H](Cc1ccccc1)NC(=O)[C@@H]1CCCc2ccccc21)B1OC2C[C@@H]3C[C@@H](C3(C)C)[C@]2(C)O1 (some centres undefined)
3.34	Cc1ccc(C[C@H](NC(=O)[C@H](Cc2c[nH]c3ccccc23)NC(=O)OCc2ccccc2)B2OC3C[C@@H]4C[C@@H](C4(C)C)[C@]3(C)O2)cc1 (some centres undefined)
3.21	CC1(C)[C@@H]2CC3OB([C@H](Cc4ccc(F)cc4)NC(=O)[C@H](Cc4ccccc4)NC(=O)c4cnccn4)O[C@@]3(C)[C@H]1C2 (some centres undefined)
4.6	COc1ccc(C[C@H](NC(=O)c2cc(Cl)ccc2Cl)C(=O)N[C@@H](CC(C)C)B(O)O)c(OC)c1
1.92	CC(C)C[C@H](NC(=O)[C@H](Cc1ccccc1)NC(=O)c1cnccn1)B1OC2C[C@@H]3C[C@@H](C3(C)C)[C@]2(C)O1 (some centres undefined)
1.12	CC(C)C[C@H](NC(=O)[C@H](Cc1ccccc1)NC(=O)[C@H]1CCCc2ccccc21)B1OC2C[C@@H]3C[C@@H](C3(C)C)[C@]2(C)O1 (some centres undefined)
1.34	CC(C)C[C@H](NC(=O)[C@H](Cc1cccc2ccccc12)NC(=O)c1cccc2c1CCCC2)B1OC2C[C@@H]3C[C@@H](C3(C)C)[C@]2(C)O1 (some centres undefined)
0.76	CC(C)C[C@H](NC(=O)[C@H](Cc1ccccc1)NC(=O)c1cccc2c1CCCC2)B1OC2C[C@@H]3C[C@@H](C3(C)C)[C@]2(C)O1 (some centres undefined)
1.46	CC(C)C[C@H](NC(=O)[C@H](Cc1ccccc1)NC(=O)C1CCc2ccccc2C1)B1OC2C[C@@H]3C[C@@H](C3(C)C)[C@]2(C)O1 (some centres undefined)
471	Cc1ccc(C[C@H](NC(=O)[C@H](CC(C)C)NC(=O)OC(C)(C)C)B2OC3C[C@@H]4C[C@@H](C4(C)C)[C@]3(C)O2)cc1 (some centres undefined)
2.34	CC(=O)N[C@@H](Cc1ccccc1)C(=O)N[C@@H](CC(C)C)B1OC2C[C@@H]3C[C@@H](C3(C)C)[C@]2(C)O1 (some centres undefined)

Same assay, conditions: read-out: pIC50 (converted)

IC50 [nM]	Structure (SMILES)
1.32	CC(C)C[C@H](NC(=O)[C@H](Cc1ccccc1)NC(=O)c1cccc2c1CCCC2)B1OC2C[C@@H]3C[C@@H](C3(C)C)[C@]2(C)O1 (some centres undefined)

Tested on: not listed separately
Test: Cytotoxicity against human RPMI8226 cells assessed as cell viability after 72 hrs by CellTiter 96 aqueous one solution cell proliferation assay
Type: functional, RPMI-8226
Conditions: not given

Structure (SMILES)	Activity [%]
COc1ccc(C[C@H](NC(=O)c2cc(Cl)ccc2Cl)C(=O)N[C@@H](CC(C)C)B(O)O)c(OC)c1	37.78

Tested on: not listed separately
Test: Cytotoxicity against human ARH77 cells assessed as cell viability after 72 hrs by CellTiter 96 aqueous one solution cell proliferation assay
Type: functional, ARH-77
Conditions: not given

Structure (SMILES)	Activity [%]
COc1ccc(C[C@H](NC(=O)c2cc(Cl)ccc2Cl)C(=O)N[C@@H](CC(C)C)B(O)O)c(OC)c1	14.58

Tested on: not listed separately
Test: Cytotoxicity against human U266B1 cells assessed as cell viability after 72 hrs by CellTiter 96 aqueous one solution cell proliferation assay
Type: functional, U-266
Conditions: not given

Structure (SMILES)	Activity [%]
COc1ccc(C[C@H](NC(=O)c2cc(Cl)ccc2Cl)C(=O)N[C@@H](CC(C)C)B(O)O)c(OC)c1	18.66

Tested on: not listed separately
Test: Elimination half life in Sprague-Dawley rat at 1 mg/kg, caudal iv by LC/MS/MS analysis
Type: ADME, organism-based
Conditions: in vivo, read-out: beta t1/2 (converted)

half-life [h]	Structure (SMILES)
7.24	COc1ccc(C[C@H](NC(=O)c2cc(Cl)ccc2Cl)C(=O)N[C@@H](CC(C)C)B(O)O)c(OC)c1

Tested on: Rattus norvegicus
Test: Elimination half life in Sprague-Dawley rat at 0.2 mg/kg, ig through feeding tube by LC/MS/MS analysis
Type: ADME, organism-based
Conditions: in vivo, po

beta t1/2 [h]	Structure (SMILES)
0.2	COc1ccc(C[C@H](NC(=O)c2cc(Cl)ccc2Cl)C(=O)N[C@@H](CC(C)C)B(O)O)c(OC)c1

Tested on: Rattus norvegicus
Test: Tmax in Sprague-Dawley rat at 0.2 mg/kg, ig through feeding tube by LC/MS/MS analysis
Type: ADME, organism-based
Conditions: in vivo, po

Tmax [min]	Structure (SMILES)
1.8	COc1ccc(C[C@H](NC(=O)c2cc(Cl)ccc2Cl)C(=O)N[C@@H](CC(C)C)B(O)O)c(OC)c1

Tested on: not listed separately
Test: Cmax in Sprague-Dawley rat at 1 mg/kg, caudal iv by LC/MS/MS analysis
Type: ADME, organism-based
Design: dose 1 mg/kg, route intravenous
Conditions: in vivo

Cmax [ng/mL]	Structure (SMILES)
7.83	COc1ccc(C[C@H](NC(=O)c2cc(Cl)ccc2Cl)C(=O)N[C@@H](CC(C)C)B(O)O)c(OC)c1

Tested on: Rattus norvegicus
Test: Cmax in Sprague-Dawley rat at 0.2 mg/kg, ig through feeding tube by LC/MS/MS analysis
Type: ADME, organism-based
Design: dose 0.2 mg/kg, route intragastric
Conditions: in vivo, po

Cmax [ng/mL]	Structure (SMILES)
245	COc1ccc(C[C@H](NC(=O)c2cc(Cl)ccc2Cl)C(=O)N[C@@H](CC(C)C)B(O)O)c(OC)c1

Tested on: not listed separately
Test: AUClast in Sprague-Dawley rat at 1 mg/kg, caudal iv by LC/MS/MS analysis
Type: ADME, organism-based
Design: dose 1 mg/kg, route intravenous, time 0 - last
Conditions: in vivo

AUC(0-t) [ng·h/mL]	Structure (SMILES)
47.9	COc1ccc(C[C@H](NC(=O)c2cc(Cl)ccc2Cl)C(=O)N[C@@H](CC(C)C)B(O)O)c(OC)c1

Tested on: not listed separately
Test: AUClast in Sprague-Dawley rat at 0.2 mg/kg, ig through feeding tube by LC/MS/MS analysis
Type: ADME, organism-based
Design: dose 0.2 mg/kg, route intragastric, time 0 - last
Conditions: in vivo, po

AUC(0-t) [ng·h/mL]	Structure (SMILES)
407	COc1ccc(C[C@H](NC(=O)c2cc(Cl)ccc2Cl)C(=O)N[C@@H](CC(C)C)B(O)O)c(OC)c1

Tested on: not listed separately
Test: AUC(0 to infinity) in Sprague-Dawley rat at 1 mg/kg, caudal iv by LC/MS/MS analysis
Type: ADME, organism-based
Design: dose 1 mg/kg, route intravenous, time infinity
Conditions: in vivo

AUC(0-inf) [ng·h/mL]	Structure (SMILES)
83	COc1ccc(C[C@H](NC(=O)c2cc(Cl)ccc2Cl)C(=O)N[C@@H](CC(C)C)B(O)O)c(OC)c1

Tested on: Rattus norvegicus
Test: AUC(0 to infinity) in Sprague-Dawley rat at 0.2 mg/kg, ig through feeding tube by LC/MS/MS analysis
Type: ADME, organism-based
Design: dose 0.2 mg/kg, route intragastric, time infinity
Conditions: in vivo, po

AUC [ng·h/mL]	Structure (SMILES)
408	COc1ccc(C[C@H](NC(=O)c2cc(Cl)ccc2Cl)C(=O)N[C@@H](CC(C)C)B(O)O)c(OC)c1

Tested on: not listed separately
Test: MRTlast in Sprague-Dawley rat at 1 mg/kg, caudal iv by LC/MS/MS analysis
Type: ADME, organism-based
Conditions: in vivo

MRT last [h]	Structure (SMILES)
8.44	COc1ccc(C[C@H](NC(=O)c2cc(Cl)ccc2Cl)C(=O)N[C@@H](CC(C)C)B(O)O)c(OC)c1

Tested on: not listed separately
Test: MRTlast in Sprague-Dawley rat at 0.2 mg/kg, ig through feeding tube by LC/MS/MS analysis
Type: ADME, organism-based
Conditions: in vivo, po

MRT last [h]	Structure (SMILES)
6.9	COc1ccc(C[C@H](NC(=O)c2cc(Cl)ccc2Cl)C(=O)N[C@@H](CC(C)C)B(O)O)c(OC)c1

Tested on: not listed separately
Test: Cell cycle arrest in human U266 cells assessed as accumulation at S phase at 10 nM by propidium iodide/RNase staining based flow cytometric analysis (reference value: 29.47 %)
Type: functional
Conditions: U-266

Structure (SMILES)	Activity [%]
COc1ccc(C[C@H](NC(=O)c2cc(Cl)ccc2Cl)C(=O)N[C@@H](CC(C)C)B(O)O)c(OC)c1	34.8

Tested on: not listed separately
Test: Cell cycle arrest in human U266 cells assessed as accumulation at G1 phase at 10 nM by propidium iodide/RNase staining based flow cytometric analysis (reference value: 58.21 %)
Type: functional
Conditions: U-266

Structure (SMILES)	Activity [%]
COc1ccc(C[C@H](NC(=O)c2cc(Cl)ccc2Cl)C(=O)N[C@@H](CC(C)C)B(O)O)c(OC)c1	43.7

Tested on: not listed separately
Test: Cell cycle arrest in human U266 cells assessed as accumulation at G2/M phase at 10 nM by propidium iodide/RNase staining based flow cytometric analysis (reference value: 12.33 %)
Type: functional
Conditions: U-266

Structure (SMILES)	Activity [%]
COc1ccc(C[C@H](NC(=O)c2cc(Cl)ccc2Cl)C(=O)N[C@@H](CC(C)C)B(O)O)c(OC)c1	21.5

Reference: ChEMBL document CHEMBL3792352, “3D-QSAR-aided design, synthesis, in vitro and in vivo evaluation of dipeptidyl boronic acid proteasome inhibitors and mechanism studies” (Bioorg Med Chem, 2016)
